Experimental data taken from PubChem BioAssay AID2060327 (Molecular Pharmacology Branch, DTP, NCI, 2025).

Test system: PC-3 multi-cell spheroids, viability
Assay: Anticancer human tumor PC-3 cell line growth inhibition [IpAb];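 further: spheroids exposed to compounds for 7 days before readout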;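 on viability, T/C: 100% = DMSO vehicle control wells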
Settings: for IC50: curve of first compound; for viability, T/C: stronger effect = lower value
How it was run: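 Multi-cell spheroids of 60% tumour cells, 25% HUVEC and 15% MSC in ultra-low-attachment U-bottom wells, treated with agents combined with ipatasertib or abemaciclib. Half-log ranges top out near clinical Cmax, or 10 microM when Cmax is unknown.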

[1] = second compound 0.01 µM, first compound 0.0316 µM
[2] = second compound 0.01 µM, first compound 0.1 µM
[3] = second compound 0.01 µM, first compound 0.316 µM
[4] = second compound 0.01 µM, first compound 1 µM
[5] = second compound 0.01 µM, first compound 3.16 µM
[6] = second compound 0.01 µM, first compound 10 µM
[7] = second compound 0.0316 µM, first compound 0.0316 µM
[8] = second compound 0.0316 µM, first compound 0.1 µM
[9] = second compound 0.0316 µM, first compound 0.316 µM
[10] = second compound 0.0316 µM, first compound 1 µM
[11] = second compound 0.0316 µM, first compound 3.16 µM
[12] = second compound 0.0316 µM, first compound 10 µM
[13] = second compound 0.1 µM, first compound 0.0316 µM
[14] = second compound 0.1 µM, first compound 0.1 µM
[15] = second compound 0.1 µM, first compound 0.316 µM
[16] = second compound 0.1 µM, first compound 1 µM
[17] = second compound 0.1 µM, first compound 3.16 µM
[18] = second compound 0.1 µM, first compound 10 µM
[19] = second compound 0.316 µM, first compound 0.0316 µM
[20] = second compound 0.316 µM, first compound 0.1 µM
[21] = second compound 0.316 µM, first compound 0.316 µM
[22] = second compound 0.316 µM, first compound 1 µM
[23] = second compound 0.316 µM, first compound 3.16 µM
[24] = second compound 0.316 µM, first compound 10 µM
[25] = second compound 1 µM, first compound 0.0316 µM
[26] = second compound 1 µM, first compound 0.1 µM
[27] = second compound 1 µM, first compound 0.316 µM
[28] = second compound 1 µM, first compound 1 µM
[29] = second compound 1 µM, first compound 3.16 µM
[30] = second compound 1 µM, first compound 10 µM

With `Cc1nc(NC(=O)N2CCCC2C(N)=O)sc1-c1ccnc(C(C)(C)C(F)(F)F)c1` (stereo not given) + CCN1CCN(Cc2ccc(Nc3ncc(F)c(-c4cc(F)c5nc(C)n(C(C)C)c5c4)n3)nc2)CC1 the IC50 (second compound 0.01 µM) was 1120 nM, the IC50 (second compound 0.0316 µM) was 1380 nM and the IC50 (second compound 0.1 µM) was 489 nM. For the same molecule, the IC50 (second compound 0.316 µM) was 523 nM, the IC50 (second compound 1 µM) was 172 nM and the viability, T/C [1] was 68.2%. It also gave a viability, T/C [2] of 48.2%, a viability, T/C [3] of 50.6% and a viability, T/C [4] of 51.2%. It also gave a viability, T/C [5] of 43.4%, a viability, T/C [6] of 13.6% and a viability, T/C [7] of 54.5%. It also gave a viability, T/C [8] of 52.7%, a viability, T/C [9] of 58.6% and a viability, T/C [10] of 53.9%. It also gave a viability, T/C [11] of 39.1%, a viability, T/C [12] of 11.1% and a viability, T/C [13] of 49%. The viability, T/C [14] was 55.5%, the viability, T/C [15] was 51.2% and the viability, T/C [16] was 47.5%. It also gave a viability, T/C [17] of 32.9%, a viability, T/C [18] of 11.5% and a viability, T/C [19] of 59.4%. For the same molecule, the viability, T/C [20] was 63.2%, the viability, T/C [21] was 55.6% and the viability, T/C [22] was 41.5%. The viability, T/C [23] was 27.8%, the viability, T/C [24] was 11.9% and the viability, T/C [25] was 62%. The viability, T/C [26] was 53.6%, the viability, T/C [27] was 45.9% and the viability, T/C [28] was 29.6%. For the same molecule, the viability, T/C [29] was 20.6% and the viability, T/C [30] was 14.4%.

`C=CCn1c(=O)c2cnc(Nc3ccc(N4CCN(C)CC4)cc3)nc2n1-c1cccc(C(C)(C)O)n1` + CCN1CCN(Cc2ccc(Nc3ncc(F)c(-c4cc(F)c5nc(C)n(C(C)C)c5c4)n3)nc2)CC1 gave an IC50 (second compound 0.01 µM) of 515 nM, an IC50 (second compound 0.0316 µM) of 290 nM and an IC50 (second compound 0.1 µM) of 446 nM. It also gave an IC50 (second compound 0.316 µM) of 450 nM, an IC50 (second compound 1 µM) of 290 nM and a viability, T/C [1] of 66.6%. For the same molecule, the viability, T/C [2] was 76.6%, the viability, T/C [3] was 53.7% and the viability, T/C [4] was 42.5%. For the same molecule, the viability, T/C [5] was 22%, the viability, T/C [6] was 27.1% and the viability, T/C [7] was 67.4%. The viability, T/C [8] was 54.7%, the viability, T/C [9] was 51.9% and the viability, T/C [10] was 39.6%. It also gave a viability, T/C [11] of 24%, a viability, T/C [12] of 26.4% and a viability, T/C [13] of 59.9%. It also gave a viability, T/C [14] of 51.2%, a viability, T/C [15] of 52.6% and a viability, T/C [16] of 41.4%. For the same molecule, the viability, T/C [17] was 24%, the viability, T/C [18] was 24.5% and the viability, T/C [19] was 59.6%. For the same molecule, the viability, T/C [20] was 56.3%, the viability, T/C [21] was 52.2% and the viability, T/C [22] was 43.2%. It also gave a viability, T/C [23] of 26.3%, a viability, T/C [24] of 24.9% and a viability, T/C [25] of 55.7%. The viability, T/C [26] was 53.3%, the viability, T/C [27] was 51.1% and the viability, T/C [28] was 38.7%. The viability, T/C [29] was 31.6% and the viability, T/C [30] was 25.1%.
